From PubChem BioAssay AID330 (DTP/NCI, 2004)
Several values for one entry are separate records, joined by “and”; a condition that tells them apart may be missing. Identical values can stand only once. Inconclusive results and toxic doses are left out.

System: P388 leukemia ip, CD2F1 mice, survival T/C
Experiment: NCI In Vivo Anticancer Drug Screen. Data for tumor model P388 Leukemia (intraperitoneal) in CD2F1 (CDF1) mice
Details: endpoint: median survival time, higher = longer survival
In short: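 Mice carrying the transplanted tumor received test compound or vehicle. Survival was recorded in each group, and the value is the treated-group measurement divided by that of the vehicle-treated control group.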

[1] = dose: 50.0 mg/kg/injection, schedule: Q01DX005 (ip), vehicle: Klucel (hydroxypropylcellulose) (HPC)
[2] = dose: 100.0 mg/kg/injection, schedule: Q01DX005 (ip), vehicle: Klucel (hydroxypropylcellulose) (HPC)
[3] = dose: 60.0 mg/kg/injection, schedule: Q01DX005 (ip), vehicle: saline with Tween-80
[4] = dose: 200.0 mg/kg/injection, schedule: Q01DX005 (ip), vehicle: Klucel (hydroxypropylcellulose) (HPC)
[5] = dose: 50.0 mg/kg/injection, schedule: Q01DX009 (ip), vehicle: saline
[6] = dose: 100.0 mg/kg/injection, schedule: Q01DX009 (ip), vehicle: saline

**Q.** For `S=P(NCCS)(N1CC1)N1CC1`, which T/C (dose: 100.0 mg/kg/injection, schedule: Q04DX003 (ip), vehicle: saline with Tween-80) is on record?
**A.** 109 % of control

**Q.** And the T/C (dose: 200.0 mg/kg/injection, schedule: Q04DX003 (ip), vehicle: saline with Tween-80)?
**A.** 122 % of control

**Q.** And the T/C (dose: 400.0 mg/kg/injection, schedule: Q04DX003 (ip), vehicle: saline with Tween-80)?
**A.** 91 % of control

**Q.** What does the source list for `C=CCC1OC(COC(=O)c2ccccc2)C(OC(=O)c2ccccc2)C1OC(=O)c1ccccc1` (stereo not drawn)?
**A.** T/C (dose: 25.0 mg/kg/injection, schedule: Q01DX005 (ip), vehicle: Klucel (hydroxypropylcellulose) (HPC)): 112 % of control; T/C (dose: 44.5 mg/kg/injection, schedule: Q01DX005 (ip), vehicle: Klucel (hydroxypropylcellulose) (HPC)): 114 % of control; T/C [1]: 117 % of control; T/C (dose: 89.0 mg/kg/injection, schedule: Q01DX005 (ip), vehicle: Klucel (hydroxypropylcellulose) (HPC)): 120 % of control; T/C [2]: 118 % of control

**Q.** What does the source list for `CC(C)=CCCc1ccc2c(c1)C(=O)c1cc3c(cc1C2=O)OCO3`?
**A.** T/C (dose: 3.75 mg/kg/injection, schedule: Q01DX005 (ip), vehicle: saline with Tween-80): 101 % of control; T/C (dose: 7.5 mg/kg/injection, schedule: Q01DX005 (ip), vehicle: saline with Tween-80): 91 % of control; T/C (dose: 15.0 mg/kg/injection, schedule: Q01DX005 (ip), vehicle: saline with Tween-80): 98 % of control and 104 % of control; T/C [3]: 87 % of control

**Q.** Which T/C (dose: 12.5 mg/kg/injection, schedule: Q01DX005 (ip), vehicle: saline with Tween-80) does the source give for `C1=C(c2ccccc2)CC2CCC1N2Cc1ccccc1` (stereo not drawn) here?
**A.** 99 % of control

**Q.** What about the T/C (dose: 25.0 mg/kg/injection, schedule: Q01DX005 (ip), vehicle: saline with Tween-80) of the same compound?
**A.** 103 % of control

**Q.** What about the T/C (dose: 50.0 mg/kg/injection, schedule: Q01DX005 (ip), vehicle: saline with Tween-80) of the same compound?
**A.** 101 % of control and 103 % of control

**Q.** For `Cc1ccc(-c2cn3c(n2)SCC3)cc1`, which T/C (dose: 100.0 mg/kg/injection, schedule: Q04DX003 (ip), vehicle: Klucel (hydroxypropylcellulose) (HPC)) is on record?
**A.** 99 % of control

**Q.** What about the T/C (dose: 200.0 mg/kg/injection, schedule: Q04DX003 (ip), vehicle: Klucel (hydroxypropylcellulose) (HPC)) of the same compound?
**A.** 106 % of control

**Q.** And the T/C (dose: 400.0 mg/kg/injection, schedule: Q04DX003 (ip), vehicle: Klucel (hydroxypropylcellulose) (HPC))?
**A.** 99 % of control

**Q.** Which results are given for `Cc1c2ccccc2cc2c1ccc1ccccc12`?
**A.** T/C (dose: 17.5 mg/kg/injection, schedule: Q01DX009 (ip), vehicle: saline with Tween-80): 116 % of control; T/C (dose: 25.0 mg/kg/injection, schedule: Q04DX003 (ip), vehicle: other): 100 % of control; T/C (dose: 35.0 mg/kg/injection, schedule: Q01DX009 (ip), vehicle: saline with Tween-80): 122 % of control; T/C (dose: 50.0 mg/kg/injection, schedule: Q04DX003 (ip), vehicle: other): 100 % of control; T/C (dose: 70.0 mg/kg/injection, schedule: Q01DX009 (ip), vehicle: saline with Tween-80): 152 % of control; T/C (dose: 100.0 mg/kg/injection, schedule: Q04DX003 (ip), vehicle: other): 102 % of control; T/C (dose: 200.0 mg/kg/injection, schedule: Q04DX003 (ip), vehicle: other): 102 % of control; T/C (dose: 400.0 mg/kg/injection, schedule: Q04DX003 (ip), vehicle: other): 107 % of control

**Q.** Which results are given for `Cc1onc(-c2c(Cl)cccc2Cl)c1C(=O)Nc1ccc(Cl)c(Cl)c1Cl`?
**A.** T/C (dose: 60.0 mg/kg/injection, schedule: Q01DX005 (ip), vehicle: Klucel (hydroxypropylcellulose) (HPC)): 96 % of control; T/C (dose: 120.0 mg/kg/injection, schedule: Q01DX005 (ip), vehicle: Klucel (hydroxypropylcellulose) (HPC)): 93 % of control; T/C (dose: 240.0 mg/kg/injection, schedule: Q01DX005 (ip), vehicle: Klucel (hydroxypropylcellulose) (HPC)): 92 % of control

**Q.** Which results are given for `COc1cc(S(=O)(=O)O)ccc1N=N/C(=N\Nc1ccc(S(=O)(=O)O)cc1OC)C(N)=O`?
**A.** T/C [1]: 100 % of control; T/C [2]: 108 % of control and 92 % of control; T/C [4]: 103 % of control and 93 % of control

**Q.** For `Cc1ccc(C(=O)OC2C3(C)CCC(C3)C2(C)C)cc1` (stereo not drawn), which T/C [3] is on record?
**A.** 100 % of control

**Q.** What about the T/C (dose: 120.0 mg/kg/injection, schedule: Q01DX005 (ip), vehicle: saline with Tween-80) of the same compound?
**A.** 100 % of control

**Q.** What about the T/C (dose: 240.0 mg/kg/injection, schedule: Q01DX005 (ip), vehicle: saline with Tween-80) of the same compound?
**A.** 94 % of control

**Q.** Which results are given for `CCCN(CCC)CCCOC(=O)c1ccc2oc3ccc(C(=O)OCCCN(CCC)CCC)cc3c2c1`?
**A.** T/C [5]: 103 % of control; T/C [6]: 106 % of control

**Q.** What does the source list for `CC(C)C(O)Cc1cc(=O)[nH]c2ccccc12` (stereo not drawn)?
**A.** T/C (dose: 100.0 mg/kg/injection, schedule: Q04DX002 (ip), vehicle: saline with Tween-80): 87 % of control; T/C (dose: 200.0 mg/kg/injection, schedule: Q04DX002 (ip), vehicle: saline with Tween-80): 87 % of control; T/C (dose: 400.0 mg/kg/injection, schedule: Q04DX002 (ip), vehicle: saline with Tween-80): 86 % of control

**Q.** With `CS(=O)(=O)Oc1cccn(S(C)(=O)=O)c1=O` as the compound, how does the T/C (dose: 12.5 mg/kg/injection, schedule: Q01DX009 (ip), vehicle: saline) read?
**A.** 97 % of control

**Q.** What about the T/C (dose: 25.0 mg/kg/injection, schedule: Q01DX009 (ip), vehicle: saline) of the same compound?
**A.** 92 % of control

**Q.** And the T/C [5]?
**A.** 97 % of control

**Q.** And the T/C [6]?
**A.** 97 % of control

**Q.** What about the T/C (dose: 200.0 mg/kg/injection, schedule: Q01DX009 (ip), vehicle: saline) of the same compound?
**A.** 97 % of control

**Q.** Which T/C [1] does the source give for `CC(C)(C)/C=C/N1N=NC(c2ccccc2)(c2ccccc2)C1=O` here?
**A.** 91 % of control

**Q.** What about the T/C [2] of the same compound?
**A.** 92 % of control

**Q.** What about the T/C [4] of the same compound?
**A.** 96 % of control
